# Patent publication US10899737B2, “Piperazine carbamates and methods of making and using same” (Lundbeck La Jolla Research Center, Inc., priority 2016, dated 2021)
# Assays:
# MAGL [1] = biological target: T1, MAGL (Homo sapiens, UniProt Q99685); assay: In vitro competitive activity-based protein profiling (human), MAGL; format: biochemical; details: for inhibition at 1 µM: 1 μM inhibitor, human proteome, 30 min preincubation at 37° C, read-out: MAGL % inh. 1 μM (human); for IC50: human PC3
# T1 construct: Proteomes (human prefrontal cortex or cell membrane fractions); from tissue
# T1 sequence (Q99685 1-303): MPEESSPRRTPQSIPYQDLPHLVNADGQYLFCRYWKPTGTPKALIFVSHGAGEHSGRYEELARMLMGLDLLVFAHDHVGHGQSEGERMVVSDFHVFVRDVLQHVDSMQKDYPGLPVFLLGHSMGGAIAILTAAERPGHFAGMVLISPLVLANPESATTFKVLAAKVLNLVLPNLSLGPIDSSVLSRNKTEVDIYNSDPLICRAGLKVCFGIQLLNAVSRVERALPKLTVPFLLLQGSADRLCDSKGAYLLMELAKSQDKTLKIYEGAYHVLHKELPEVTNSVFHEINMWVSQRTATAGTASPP
# Method in brief: (§1)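 Human prefrontal cortex or cell membrane proteomes (1.0-2.0 mg/mL protein) preincubated 30 min at 37° C with inhibitor, then labeled 30 min RT with FP-Rh or JW912 probe. After SDS-PAGE, activity taken from fluorescent band intensity for each enzyme.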
# ABHD6 [2] = biological target: T2, ABHD6 (Mus musculus, UniProt Q8R2Y0); assay: In vitro competitive activity-based protein profiling (mouse), ABHD6; format: biochemical; details: 1 μM inhibitor, mouse brain membrane fraction or cell lysates; read-out: ABHD6 % inh. 1 μM (mouse)
# T2 construct: Proteomes (mouse brain membrane fraction or cell lysates); from tissue; host or cells: mouse brain membrane fraction or cell lysates
# T2 sequence (Q8R2Y0 1-336): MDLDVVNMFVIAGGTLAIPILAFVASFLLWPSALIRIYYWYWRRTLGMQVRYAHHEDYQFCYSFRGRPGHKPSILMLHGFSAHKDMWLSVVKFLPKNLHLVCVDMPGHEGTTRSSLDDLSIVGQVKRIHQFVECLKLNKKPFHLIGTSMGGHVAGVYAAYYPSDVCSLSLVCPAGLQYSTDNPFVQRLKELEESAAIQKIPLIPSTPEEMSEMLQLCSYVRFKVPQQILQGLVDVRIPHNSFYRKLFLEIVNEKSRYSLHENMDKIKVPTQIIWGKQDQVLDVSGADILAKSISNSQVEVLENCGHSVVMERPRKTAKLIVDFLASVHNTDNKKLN
# Method in brief: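 Mouse brain membrane proteome or cell lysate (1.0 mg/mL protein) preincubated 30 min at 37 °C with inhibitor, then labelled 30 min at 37 °C with FP-rhodamine probe. Remaining MAGL and ABHD6 activity quantified by in-gel fluorescence band intensity after SDS-PAGE; values are % inhibition at 1 μM.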
# MAGL [3] = biological target: T3, MAGL (Mus musculus, UniProt O35678); assay: In vitro competitive activity-based protein profiling (mouse), MAGL; format: biochemical; details: for inhibition at 1 µM: 1 μM inhibitor, mouse brain membrane fraction or cell lysates, read-out: MAGL % inh. 1 μM (mouse); for IC50: mouse proteome
# T3 construct: Proteomes (mouse brain membrane fraction or cell lysates); from tissue; host or cells: mouse brain membrane fraction or cell lysates
# T3 sequence (O35678 1-303): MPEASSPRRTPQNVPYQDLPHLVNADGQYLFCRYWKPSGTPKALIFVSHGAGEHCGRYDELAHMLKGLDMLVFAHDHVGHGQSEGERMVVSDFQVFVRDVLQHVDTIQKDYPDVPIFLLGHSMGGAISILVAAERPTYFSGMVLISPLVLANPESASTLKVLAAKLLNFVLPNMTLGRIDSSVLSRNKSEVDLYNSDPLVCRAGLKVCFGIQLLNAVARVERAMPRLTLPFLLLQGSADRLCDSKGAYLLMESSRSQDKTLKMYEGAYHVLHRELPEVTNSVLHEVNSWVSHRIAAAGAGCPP
# Method in brief: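 Mouse brain membrane fraction or cell lysate proteomes (50 μL, 1.0 mg/mL total protein) were preincubated with inhibitors at varying concentrations for 30 min at 37° C. FP-Rh (1.0 μL, 50 μM in DMSO) was then added for a further 30 min at 37° C. Samples were quenched with 4× SDS loading buffer and resolved by SDS-PAGE. MAGL activity was quantified from fluorescent gel band intensity using ImageJ 1.49 k.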
# ABHD6 [4] = biological target: T4, ABHD6 (Homo sapiens, UniProt Q9BV23); assay: In vitro competitive activity-based protein profiling (human), ABHD6; format: biochemical; details: human PC3
# T4 construct: Proteomes (human prefrontal cortex or cell membrane fractions); endogenous in cells; human prefrontal cortex
# T4 sequence (Q9BV23 1-337): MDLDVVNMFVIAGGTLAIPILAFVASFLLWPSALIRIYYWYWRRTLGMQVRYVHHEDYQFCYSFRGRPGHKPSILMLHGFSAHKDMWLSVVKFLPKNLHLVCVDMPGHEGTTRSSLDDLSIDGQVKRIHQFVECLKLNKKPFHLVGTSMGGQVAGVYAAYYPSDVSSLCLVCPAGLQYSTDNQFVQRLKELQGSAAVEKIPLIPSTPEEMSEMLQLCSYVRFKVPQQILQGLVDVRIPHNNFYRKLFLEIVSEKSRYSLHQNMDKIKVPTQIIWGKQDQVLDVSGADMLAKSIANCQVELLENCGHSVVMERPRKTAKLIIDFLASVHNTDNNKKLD
# Method in brief: as §1
# MAGL [5] = biological target: T3, MAGL; assay: Mouse brain proteomes from inhibitor treated mice, MAGL inhibition; format: in vivo; details: 5 mg/kg oral gavage, C57Bl/6J mouse brain, 4 h following administration; read-out: MAGL % inh. 5 mg/kg (mouse)
# Experimental: Preparation of Mouse Brain Proteomes from Inhibitor Treated Mice.
# Inhibitors were administered to wild-type C57Bl/6J by oral gavage in a vehicle of polyethylene glycol. Each animal was sacrificed 4 h following administration and brain proteomes were prepared and analyzed according to previously established methods (See Niphakis, M. J., et al. (2011) ACS Chem. Neurosci. and Long, J. Z., et al. Nat. Chem. Biol. 5:37-44).
Compound,inhibition at 1 µM (MAGL [1]) [%],IC50 (MAGL [1]) [µM],inhibition at 1 µM (ABHD6 [2]) [%],inhibition at 1 µM (MAGL [3]) [%],IC50 (ABHD6 [4]) [µM],inhibition at 5 mg/kg (MAGL [5]) [%],IC50 (MAGL [3]) [µM]
"Cc1ccc(CN2CCN(C(=O)OC(C(F)(F)F)C(F)(F)F)CC2)c(N2CCC(C(=O)O)CC2)c1F [Example 59, 1-(2-fluoro-6-((4-(((1,1,1,3,3,3-hexafluoropropan-2-yl)oxy)carbonyl)piperazin-1-yl)methyl)-3-methylphenyl)piperidine-4-carboxylic acid]",≥ 75,≤ 0.1,≥ 75,≥ 75,1 to 10,≥ 75,–
"O=C(O)c1csc(-c2cc(C(F)(F)F)ccc2CN2CCN(C(=O)OC(C(F)(F)F)C(F)(F)F)CC2)c1 [Example 10, 5-(2-((4-(((1,1,1,3,3,3-Hexafluoropropan-2-yl)oxy)carbonyl)piperazin-1-yl)methyl)-5-(trifluoromethyl)phenyl)thiophene-3-carboxylic Acid]",≥ 75,≤ 0.1,≥ 75,≥ 75,1 to 10,0 to 25,–
"O=C(O)CN1CCC2(C1)CN(c1cc(C(F)(F)F)ccc1CN1CCN(C(=O)OC(C(F)(F)F)C(F)(F)F)CC1)C2 [Example 23, 2-(2-(2-((4-(((1,1,1,3,3,3-Hexafluoropropan-2-yl)oxy)carbonyl)piperazin-1-yl)methyl)-5-(trifluoromethyl)phenyl)-2,6-diazaspiro[3.4]octan-6-yl)acetic Acid]",≥ 75,≤ 0.1,0 to 25,≥ 75,1 to 10,0 to 25,–
"O=C(OC(C(F)(F)F)C(F)(F)F)N1CCN(Cc2ccccc2C2(C(=O)O)CCCC2)CC1 [Example 36, 1-(2-((4-(((1,1,1,3,3,3-hexafluoropropan-2-yl)oxy)carbonyl)piperazin-1-yl)methyl)phenyl)cyclopentane-1-carboxylic acid]",≥ 75,≤ 0.1,0 to 25,≥ 75,1 to 10,≥ 75,–
"O=C(O)C1CCN(c2cc(OC(F)(F)F)ccc2CN2CCN(C(=O)OC(C(F)(F)F)C(F)(F)F)CC2)CC1 [Example 67, 1-(2-((4-(((1,1,1,3,3,3-hexafluoropropan-2-yl)oxy)carbonyl)piperazin-1-yl)methyl)-5-(trifluoromethoxy)phenyl)piperidine-4-carboxylic acid]",≥ 75,≤ 0.1,50 to 75,≥ 75,1 to 10,≥ 75,≤ 0.1
"Cc1cc(C(=O)O)sc1-c1cc(C(F)(F)F)ccc1CN1CCN(C(=O)OC(C(F)(F)F)C(F)(F)F)CC1 [Example 9, 5-(2-((4-(((1,1,1,3,3,3-Hexafluoropropan-2-yl)oxy)carbonyl)piperazin-1-yl)methyl)-5-(trifluoromethyl)phenyl)-4-methylthiophene-2-carboxylic Acid]",≥ 75,≤ 0.1,50 to 75,≥ 75,1 to 10,25 to 50,–
"O=C(OC(C(F)(F)F)C(F)(F)F)N1CCN(Cc2ccc(C(F)(F)F)cc2C2(C(=O)O)CCOCC2)CC1 [Example 45, 4-(2-((4-(((1,1,1,3,3,3-hexafluoropropan-2-yl)oxy)carbonyl)piperazin-1-yl)methyl)-5-(trifluoromethyl)phenyl)tetrahydro-2H-pyran-4-carboxylic acid]",≥ 75,≤ 0.1,0 to 25,≥ 75,1 to 10,≥ 75,–
"O=C(O)[C@@H]1CCCN1C1CCN(c2cc(C(F)(F)F)ccc2CN2CCN(C(=O)OC(C(F)(F)F)C(F)(F)F)CC2)CC1 [Example 64, (1-(2-((4-(((1,1,1,3,3,3-hexafluoropropan-2-yl)oxy)carbonyl)piperazin-1-yl)methyl)-5-(trifluoromethyl)phenyl)piperidin-4-yl)proline]",≥ 75,≤ 0.1,50 to 75,≥ 75,1 to 10,0 to 25,–

# Further lines, results first:
inhibition at 1 µM (MAGL [1]) [%],IC50 (MAGL [1]) [µM],inhibition at 1 µM (ABHD6 [2]) [%],inhibition at 1 µM (MAGL [3]) [%],IC50 (ABHD6 [4]) [µM],inhibition at 5 mg/kg (MAGL [5]) [%],IC50 (MAGL [3]) [µM],Compound
≥ 75,≤ 0.1,50 to 75,≥ 75,1 to 10,≥ 75,–,"CC1(C(=O)O)CCCN(c2cc(C(F)(F)F)ccc2CN2CCN(C(=O)OC(C(F)(F)F)C(F)(F)F)CC2)C1 (stereo not drawn) [Example 54, 1-(2-((4-(((1,1,1,3,3,3-hexafluoropropan-2-yl)oxy)carbonyl)piperazin-1-yl)methyl)-5-(trifluoromethyl)phenyl)-3-methylpiperidine-3-carboxylic acid]"
≥ 75,≤ 0.1,0 to 25,≥ 75,1 to 10,0 to 25,≤ 0.1,"O=C(O)CN1CCC2(CC1)CCN(c1cc(C(F)(F)F)ccc1CN1CCN(C(=O)OC(C(F)(F)F)C(F)(F)F)CC1)C2 [Example 19, 2-(2-(2-((4-(((1,1,1,3,3,3-Hexafluoropropan-2-yl)oxy)carbonyl)piperazin-1-yl)methyl)-5-(trifluoromethyl)phenyl)-2,8-diazaspiro[4.5]decan-8-yl)acetic Acid]"
≥ 75,≤ 0.1,0 to 25,≥ 75,1 to 10,0 to 25,–,"CC1(NCC(=O)O)CCN(c2cc(C(F)(F)F)ccc2CN2CCN(C(=O)OC(C(F)(F)F)C(F)(F)F)CC2)CC1 [Example 51, (1-(2-((4-(((1,1,1,3,3,3-hexafluoropropan-2-yl)oxy)carbonyl)piperazin-1-yl)methyl)-5-(trifluoromethyl)phenyl)-4-methylpiperidin-4-yl)glycine]"
≥ 75,≤ 0.1,0 to 25,≥ 75,1 to 10,0 to 25,≤ 0.1,"CC1(C(=O)O)CN(c2cc(C(F)(F)F)ccc2CN2CCN(C(=O)OC(C(F)(F)F)C(F)(F)F)CC2)CCO1 (stereo not drawn) [Example 57, 4-{2-[(4-{[(1,1,1,3,3,3-hexafluoropropan-2-yl)oxy]carbonyl}piperazin-1-yl)methyl]-5-(trifluoromethyl)phenyl}-2-methylmorpholine-2-carboxylic acid]"
